Results on 50 molecules are retold here after ChEMBL document CHEMBL1155084 (J Med Chem, 2008).

Structures are written as SMILES.

The test system of one experiment is Blood. The experiment can be described thus: Inhibition of TNFalpha release in human whole blood. Type of experiment: functional, tissue-based.
In experiment [1] the target is Mitogen-activated protein kinase 14 (Homo sapiens, UniProt Q16539). In words: Inhibition of p38alpha.

In general, IC50 refers to the concentration that gives 50% inhibition.

Chain of Mitogen-activated protein kinase 14 (Q16539 whole entry): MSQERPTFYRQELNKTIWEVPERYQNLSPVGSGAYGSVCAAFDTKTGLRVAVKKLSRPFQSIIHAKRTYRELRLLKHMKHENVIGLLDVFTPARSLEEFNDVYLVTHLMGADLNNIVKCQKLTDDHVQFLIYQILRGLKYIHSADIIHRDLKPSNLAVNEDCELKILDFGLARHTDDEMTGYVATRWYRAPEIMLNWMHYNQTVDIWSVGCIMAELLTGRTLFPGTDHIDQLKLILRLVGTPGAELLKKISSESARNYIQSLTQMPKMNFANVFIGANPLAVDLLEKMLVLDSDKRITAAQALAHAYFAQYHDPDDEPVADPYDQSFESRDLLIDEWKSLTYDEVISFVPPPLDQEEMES

On to `CSc1nc(-c2cccc(C(F)(F)F)c2)c(-c2ccnc(NCC(C)c3ccccc3)c2)[nH]1` (configuration not stated), for which the values for the concentration for half-maximal inhibition (IC50) (with Blood; in experiment [1]) were 23000 nM and 93 nM, respectively.
For `CSc1nc(-c2ccc(F)cc2)c(-c2ccnc(OCc3cccs3)c2)[nH]1`, in that order: 38400 nM and 424 nM.
For `CSc1nc(-c2cccc(C(F)(F)F)c2)c(-c2ccnc(NCc3ccccc3)c2)[nH]1`, in that order: 38100 nM and 282 nM.
As for `CSc1nc(-c2ccnc(NC3CCOCC3)c2)c(-c2ccc(F)cc2)[nH]1`, the midpoint of inhibition in experiment [1], the IC50, lay at 5 nM.
For the molecule `CSc1nc(-c2ccnc(NCCCO)c2)c(-c2ccc(F)cc2)[nH]1`, the figures for the IC50 (in the experiment on Blood; in experiment [1]) were 680 nM and 15 nM, respectively.
For `CCSc1nc(-c2ccc(F)cc2)c(-c2ccnc(Cl)c2)[nH]1`, in that order: 36000 nM and 372 nM.
For `CSc1nc(-c2ccnc(OCC3CCCO3)c2)c(-c2ccc(F)cc2)[nH]1` (configuration not stated), in that order: 11200 nM and 542 nM.
For `CSc1nc(-c2ccc(F)cc2)c(-c2ccnc(OC(C)CCCC(C)C)c2)[nH]1` (configuration not stated), in that order: 42700 nM and 641 nM.
Regarding `CCSc1nc(-c2cccc(C(F)(F)F)c2)c(-c2ccnc(F)c2)[nH]1`, the IC50 with Blood came out at 71500 nM; in experiment [1], 657 nM.
For `CSc1nc(-c2ccc(F)cc2)c(-c2ccnc(N[C@H](C)C3CCCCC3)c2)[nH]1`, in that order: 3300 nM and 9 nM.
For `CSc1nc(-c2ccc(F)cc2)c(-c2ccnc(NC(Cc3ccccc3)Cc3ccccc3)c2)[nH]1`, in that order: 43600 nM and 2150 nM.
For `CCC(CO)Nc1cc(-c2[nH]c(SC)nc2-c2ccc(F)cc2)ccn1` (configuration not stated), in that order: 239 nM and 10 nM.
As for `CSc1nc(-c2ccc(F)cc2)c(-c2ccnc(NCc3ccc(F)cc3)c2)[nH]1`, the IC50 is 22200 nM in the experiment on Blood and 173 nM in experiment [1].
For `CSc1nc(-c2ccc(F)cc2)c(-c2ccnc(OC(C)c3ccccc3)c2)[nH]1` (configuration not stated), in that order: 44300 nM and 639 nM.
On to `COCCn1c(SC)nc(-c2ccc(F)cc2)c1-c1ccnc(NC2CCCC[C@H]2O)c1` (some centres not stated), for which 211 nM corresponded to half-maximal inhibition in experiment [1] (IC50).
As for `CSc1nc(-c2ccc(F)cc2)c(-c2ccnc(NC(CO)C(C)C)c2)[nH]1` (configuration not stated), the IC50 in the experiment with Blood was found to be 1060 nM; in experiment [1], 34 nM.
For `COCCn1c(SC)nc(-c2ccc(F)cc2)c1-c1ccnc(NC[C@H]2CCCC[C@@H]2O)c1`, in that order: 11500 nM and 235 nM.
`CCSc1nc(-c2ccc(F)cc2)c(-c2ccnc(F)c2)[nH]1` registered a concentration for half-maximal inhibition (IC50) in experiment [1] of 213 nM.
Still for that read-out and setting: under `COCCn1c(SC)nc(-c2ccc(F)cc2)c1-c1ccnc(N[C@H](C)CO)c1` stands 485 nM.
For `CSc1nc(-c2ccc(F)cc2)c(-c2ccnc(N[C@H]3CC[C@H](C)CC3)c2)[nH]1`, the IC50 in the experiment on Blood was determined as 15800 nM; in experiment [1], 15 nM.
For `CSc1nc(-c2ccc(F)cc2)c(-c2ccnc(NC(C)CO)c2)[nH]1` (configuration not stated), in that order: 439 nM and 6 nM.
For `CSc1nc(-c2ccc(F)cc2)c(-c2ccnc(NC(C)CC(C)C)c2)[nH]1` (configuration not stated), in that order: 700 nM and 26 nM.
For `Fc1cc(-c2[nH]c(SCc3ccccc3)nc2-c2cccc(C(F)(F)F)c2)ccn1`, in that order: 83600 nM and 1950 nM.
Take `CSc1nc(-c2ccc(F)cc2)c(-c2ccnc(NCc3cccc4ccccc34)c2)[nH]1`: the half-inhibitory concentration (IC50) was 28000 nM with Blood and 171 nM in experiment [1].
For `CSc1nc(-c2cccc(C(F)(F)F)c2)c(-c2ccnc(NC(C)c3ccccc3)c2)[nH]1` (configuration not stated), in that order: 12200 nM and 199 nM.
For `CSc1nc(-c2ccc(F)cc2)c(-c2ccnc(NCCO)c2)[nH]1`, in that order: 2040 nM and 45 nM.
Turning to `CSc1nc(-c2ccc(F)cc2)c(-c2ccnc(NCc3ccc(C(C)(C)C)cc3)c2)[nH]1`, the figures for the IC50 (with Blood; in experiment [1]) were 52600 nM and 1340 nM, respectively.
In the case of `CSc1nc(-c2ccc(F)cc2)c(-c2ccnc(NC(Cc3ccccc3)c3ccccc3)c2)[nH]1` (configuration not stated), the half-maximal inhibitory concentration (IC50) in the experiment on Blood turned out to be 43500 nM; in experiment [1], 348 nM.
For `COCCn1c(SC)nc(-c2ccc(F)cc2)c1-c1ccnc(NCC(C)O)c1` (configuration not stated), in that order: 6380 nM and 146 nM.
For `CSc1nc(-c2ccc(F)cc2)c(-c2ccnc(N[C@@H](C)C3CCCCC3)c2)[nH]1`, in that order: 27600 nM and 153 nM.
For `CSc1nc(-c2cccc(C(F)(F)F)c2)c(-c2ccnc(N[C@H]3CC[C@H](O)CC3)c2)[nH]1`, in that order: 1680 nM and 11 nM.
With `CSc1nc(-c2cccc(C(F)(F)F)c2)c(-c2ccnc(F)c2)[nH]1`, the IC50 stood at 44200 nM in the experiment on Blood and 1090 nM in experiment [1].
For `CSc1nc(-c2ccc(F)cc2)c(-c2ccnc(NCc3ccncc3)c2)[nH]1`, in that order: 6220 nM and 119 nM.
Take `CSc1nc(-c2cccc(C(F)(F)F)c2)c(-c2ccnc(NCc3ccco3)c2)[nH]1`: the IC50 with Blood is 14800 nM; in experiment [1], 191 nM.
For `CSc1nc(-c2ccc(F)cc2)c(-c2ccnc(OCc3ccccc3)c2)[nH]1`, in that order: 44700 nM and 436 nM.
For `CSc1nc(-c2ccc(F)cc2)c(-c2ccnc(F)c2)[nH]1`, in that order: 29900 nM and 559 nM.
On to `COCCn1c(SC)nc(-c2ccc(F)cc2)c1-c1ccnc(NC2CCOCC2)c1`, for which the results for the concentration for half-maximal inhibition (IC50) (with Blood; in experiment [1]) were 5880 nM and 38 nM, respectively.
For `COCCn1c(SC)nc(-c2ccc(F)cc2)c1-c1ccnc(N[C@H](C)C2CCCCC2)c1`, in that order: 28000 nM and 359 nM.
For `CSc1nc(-c2ccc(F)cc2)c(-c2ccnc(NCc3ccc(C)o3)c2)[nH]1`, in that order: 7430 nM and 113 nM.
For `CSc1nc(-c2cccc(C(F)(F)F)c2)c(-c2ccnc(NCc3cccs3)c2)[nH]1`, in that order: 26800 nM and 239 nM.
In the case of `CSc1nc(-c2ccc(F)cc2)c(-c2ccnc(NC3CCC(C)CC3)c2)[nH]1` (mixture of isomers), the figures for the IC50 (in the experiment with Blood; in experiment [1]) were 5400 nM and 20 nM, respectively.
For `CSc1nc(-c2ccc(F)cc2)c(-c2ccnc(NCCC(C)C)c2)[nH]1`, in that order: 2430 nM and 90 nM.
For `CSc1nc(-c2ccnc(NC3CCCCC3)c2)c(-c2ccc(F)cc2)[nH]1`, in that order: 362 nM and 20 nM.
For `CSc1nc(-c2ccc(F)cc2)c(-c2ccnc(N[C@H]3CC[C@H](O)CC3)c2)[nH]1`, in that order: 386 nM and 3 nM.
As for `CSc1nc(-c2ccc(F)cc2)c(-c2ccnc(NCCC(C)(C)C)c2)[nH]1`, the half-inhibitory concentration (IC50) turned out to be 4540 nM in the experiment on Blood and 126 nM in experiment [1].
`Fc1ccc(-c2nc(SCc3ccccc3)[nH]c2-c2ccnc(Cl)c2)cc1`: the IC50 in the experiment with Blood was determined as 50900 nM; in experiment [1], 2900 nM.
In experiment [1], `COCCn1c(SC)nc(-c2ccc(F)cc2)c1-c1ccnc(Nc2ccccc2)c1` registered a half-maximal inhibitory concentration (IC50) of 51 nM.
Still for that read-out and setting: next, `CSc1nc(-c2ccc(F)cc2)c(-c2ccnc(Cl)c2)[nH]1`: 1040 nM; `Fc1ccc(-c2nc(SCc3ccccc3)[nH]c2-c2ccnc(F)c2)cc1`: 258 nM; `CSc1nc(-c2ccc(F)cc2)c(-c2ccnc(NCc3ccccc3)c2)[nH]1`: 139 nM.
